In assay [1] the test system is vasopressin-induced hypertension in anesthetized rats. Kind of assay: Reversal of vasopressin-induced hypertension in rats (intraduodenal dosing). Format: in vivo, rat. The note with it: I.D. dose 10 mg/kg, single dose into the duodenum, maximum percent reversal, monitored for 60 minutes. As for the experimental part: Reversal of Vasopressin-Induced Hypertension in Rats
The anti-hypertensive activity of compounds was screened in an anesthetized model of vasopressin-induced hypertension. Male Long Evans, normotensive rats of between 350 and 450 g in body weight were anesthetized with pentobarbital (35 mg/kg, ip) and maintained throughout the procedure with an ip infusion of 10 mg/kg/hr. Arginine vasopressin was infused at 30 ng/kg/min, iv, to induce a stable hypertensive state (ca. 50 mmHg increase in mean arterial blood pressure). Compounds of interest were administered in an ascending dose fashion and the maximum decrease in mean arterial blood pressure was recorded. An ED50 was determined from the linear portion of the dose-response relationship for each animal.
This model was modified slightly to assess the bioavailability of compounds of interest. Rather than dosing the animals iv in an ascending dose fashion, a single dose per animal was administered directly into the duodenum. The anti-hypertensive effects were then monitored for 60 minutes and the maximum percent reversal was calculated.

A further assay concerns the target T1, human V-1 receptor (Homo sapiens, UniProt P37288).
T1 construct: expressed in transfected cells; host or cells: HEK-293
Kind of assay: In vitro recombinant vasopressin receptor binding assay (V1 Bdg), displacement of 3H-arginine vasopressin. The note with it: read-out: V1 Bdg (% inh, 0.1 uM). The essentials:
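Membranes from HEK-293 cells bearing cloned human V-1 receptor, incubated 1 h at room temperature with 0.65-0.75 nM 3H-arginine-8-vasopressin in pH 7.5 Tris/MgCl2/BSA buffer with protease inhibitors. Filtration onto GF/C, scintillation count. Non-specific binding with 1.25 uM arginine-8-vasopressin.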

The target of assay [2] is T2, V2 (Homo sapiens, UniProt P30518). Kind of assay: In vitro recombinant vasopressin receptor binding assay (V2 Bdg), displacement of 3H-arginine vasopressin. Set-up: expressed in transfected cells; host or cells: HEK-293. Conditions: membrane with cloned human V-2 receptor (HEK-293). The essentials: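 Displacement of ³H-vasopressin from membranes of HEK-293 cells bearing cloned human V-2 receptor, incubated with test compound one hour at room temperature. Bound label was collected on PEI-soaked GF/C filters, washed with cold saline/0.05% Tween 20, and counted by scintillation.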
T2 sequence (P30518 whole entry): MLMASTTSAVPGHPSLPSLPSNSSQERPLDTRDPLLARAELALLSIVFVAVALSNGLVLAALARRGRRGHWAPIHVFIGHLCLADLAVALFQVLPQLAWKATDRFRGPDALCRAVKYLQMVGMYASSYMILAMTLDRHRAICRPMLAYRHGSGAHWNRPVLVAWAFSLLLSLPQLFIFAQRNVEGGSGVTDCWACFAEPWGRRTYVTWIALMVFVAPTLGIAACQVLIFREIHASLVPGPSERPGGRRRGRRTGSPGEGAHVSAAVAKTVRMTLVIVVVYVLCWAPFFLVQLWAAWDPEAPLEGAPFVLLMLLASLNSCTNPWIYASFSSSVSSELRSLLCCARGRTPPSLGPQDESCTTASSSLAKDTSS
A general note: Displacement assays read how much labelled ligand stays bound in the presence of the test substance.

The target of assay [3] is T2, V2. As to the kind of experiment: V2 cAMP. Format: cell-based.

T1 sequence (P37288 whole entry): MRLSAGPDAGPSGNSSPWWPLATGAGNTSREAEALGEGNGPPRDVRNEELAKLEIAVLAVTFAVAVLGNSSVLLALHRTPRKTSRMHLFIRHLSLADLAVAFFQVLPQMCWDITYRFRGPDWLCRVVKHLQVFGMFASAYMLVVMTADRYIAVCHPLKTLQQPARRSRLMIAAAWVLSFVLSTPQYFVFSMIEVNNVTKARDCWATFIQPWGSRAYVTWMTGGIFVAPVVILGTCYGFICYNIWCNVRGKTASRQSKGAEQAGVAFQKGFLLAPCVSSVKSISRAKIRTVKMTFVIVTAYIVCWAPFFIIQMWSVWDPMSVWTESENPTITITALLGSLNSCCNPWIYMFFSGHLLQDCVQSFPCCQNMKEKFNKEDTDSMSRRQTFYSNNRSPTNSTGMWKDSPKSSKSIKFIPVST

Turning to `O=C(Nc1ccc(C(=O)N2CC3CSCCN3Cc3ccccc32)cc1)c1ccccc1-c1ccccc1` (racemic) [Compound 3, (RS)-2-Phenyl-N-[4-(1,3,4,12a-tetrahydro-6H-[1,4]thiazino[4,3-a][1,4]-benzodiazepin-11(12H)-yl-carbonyl)phenyl]benzamide], in assay [1], the “BP Reduction (%)” value was found to be 100%. On human V-1 receptor, the inhibition at 0.1 µM came out at 42%.
With `O=C(Nc1ccc(C(=O)N2CC3CCCCN3Cc3ccccc32)cc1)c1ccccc1-c1ccccc1` (stereo not drawn) [Compound 1, 10-[4-[[(2-Biphenyl)carbonyl]amino]benzoyl]-10,11-dihydro-5H-piperidino[2,1-c][1,4]benzodiazepine], the IC50 at V2 [2] came to 9 nM; at V2 [3], 210 nM. In assay [1], the “BP Reduction (%)” value is on record as 67%. Further, the inhibition at 0.1 µM at human V-1 receptor is 31%.
With `O=C(Nc1ccc(C(=O)N2C[C@H]3COCCN3Cc3ccccc32)c(Cl)c1)c1ccccc1-c1ccccc1` [Compound 4, (S)-2-Phenyl-N-[3-chloro-4-(1,3,4,12a-tetrahydro-6H-[1,4]oxazino[4,3-a][1,4]-benzodiazepin-11(12H)-yl-carbonyl)phenyl]benzamide], the IC50 was 2 nM at V2 [2] and 11 nM against V2 [3]. Also, the “BP Reduction (%)” value in assay [1] was determined as 100%.

Usually IC50 stands for the point on the concentration scale where inhibition reaches its midpoint.
